The term IC50 denotes the concentration that gives 50% inhibition. The low end stands for higher potency, the high end for lower potency.

In patent US9738600B2, “ROR gamma (RORγ) modulators” (LEAD PHARMA CEL MODELS IP B.V., priority 2013, dated 2017) one finds IC50 data, which are given here for 31 compounds.

This assay addresses T1, RORγ (Homo sapiens, UniProt P51449).
T1 sequence (P51449 269-508 limits assumed): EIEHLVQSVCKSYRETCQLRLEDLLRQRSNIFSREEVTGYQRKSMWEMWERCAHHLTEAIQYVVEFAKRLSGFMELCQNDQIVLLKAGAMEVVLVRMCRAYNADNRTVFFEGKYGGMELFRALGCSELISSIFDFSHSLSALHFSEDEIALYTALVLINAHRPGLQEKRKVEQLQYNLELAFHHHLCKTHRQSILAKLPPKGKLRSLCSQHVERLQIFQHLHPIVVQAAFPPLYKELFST
Kind of assay: RORγ GAL4 reporter gene assay. Conditions: mean pIC50, inhibition of RORγ (GAL4-RORγ-LBD) in 293FT cells, luciferase readout, overnight incubation. (In general: Reporter assays use an easily measured gene product as a stand-in for the process of interest.)

Structures are written as SMILES.

Text: The RORγ ligand-binding domain (LBD) was fused to the yeast GAL4 DNA binding domain (DBD) and placed under the control of the human cytomegalovirus (CMV) immediate early promoter, using expression vector pFN26A (Promega) and standard recombinant DNA cloning methods.
To monitor the inhibitory effect of compounds on RORγ, a transcriptional reporter construct was used. The pGL4.35 vector (Promega) contains nine copies of the GAL4 Upstream Activator Sequence (UAS). This sequence drives the transcription of the luciferase reporter gene luc2P in response to binding of a fusion protein containing the GAL4 DNA binding domain, as for example expressed by the GAL4-RORγ-LBD and GAL4-VP16 expression vectors described above.
The day after transfection, cells were plated into 96 well plates, test compound was added and the plates were incubated overnight. Subsequently, the firefly luciferase activity was quantified using luciferase detection reagent and luminescence readout.
1500 μL of this reagent mixture was added to 5 μg of GAL4 fusion protein expression vector and 5 μg of the transcriptional reporter construct, and incubated at RT for 20 minutes.
Subsequently, the cells were washed with Phosphate Buffered Saline (PBS) (Lonza), after which the PBS was removed. To dissociate the cells, 1 ml of TrypLE Express (Invitrogen) was added to the flask, followed by incubation at RT until the cells visually started to detach. Cells were collected in 5 mL of assay medium (DMEM culture medium (Lonza), 10% dialyzed FBS (Invitrogen) and Pen/Strep (Lonza)) to achieve a single cell suspension. 10×10^6 cells were spun down and re-suspended in 10 mL of assay medium. Subsequently, the cell suspension was added to the transfection mix tube, and then transferred as a whole to a T75 flask (Greiner), followed by overnight (16-24 hours) incubation at 37° C. and 5% CO2.
For compound screening, the cells were harvested (as described above) and counted. […] 80 μL of cell suspension (60,000 cells) was plated per well into a white, flat bottom, tissue culture treated, 96 well screening plates (Greiner).
Test compounds were diluted, starting from a 10 mM dimethylsulfoxide (DMSO) stock solution, to serial dilutions in DMSO at 500× the final test concentration. Subsequently, these solutions were diluted to 5× the final test concentration in two 10-fold-dilution steps in assay medium. The final DMSO concentration of the 5× test compound solution was 1%. 20 μL of the 5× test compound solution was added to each test well of the 96 well plate previously plated with 80 μl cell suspension, resulting in the final test concentration with 0.2% DMSO.
The plates were incubated overnight (16-24 hours) at 37° C. and 5% CO2.
For the luciferase readout, the luciferase reagent (Britelite Plus, Perkin Elmer) was brought to RT. […] The luciferase luminescence signal was measured using a Wallac Victor Microplate Reader (Perkin Elmer).
The half maximum inhibitory concentration (IC50) values for the test compounds were calculated from the luciferase signal using GraphPad Prism software (GraphPad Software).

`CCCS(=O)(=O)c1ccc(CC(=O)Nc2ccc(C(O)(C(F)(F)F)C(F)(F)F)cc2)cc1` [Example 4, N-(4-(1,1,1,3,3,3-hexafluoro-2-hydroxypropan-2-yl)phenyl)-2-(4-(propylsulfonyl)phenyl)acetamide] returned a half-inhibitory concentration (IC50) of no more than 1000 nM.

`CCS(=O)(=O)c1ccc(C(C)C(=O)Nc2ccc(C(O)(C(F)(F)F)C(F)(F)F)cc2)cc1` (stereo not shown) [Example 5, 2-(4-(ethylsulfonyl)phenyl)-N-(4-(1,1,1,3,3,3-hexafluoro-2-hydroxypropan-2-yl)phenyl)propanamide] showed a 50% inhibitory concentration (IC50) of no more than 1000 nM.

Turning to `CNS(=O)(=O)c1ccc(CC(=O)Nc2ccc(C(O)(C(F)(F)F)C(F)(F)F)cc2)cc1` [Example 6, N-(4-(1,1,1,3,3,3-hexafluoro-2-hydroxypropan-2-yl)phenyl)-2-(4-(N-methylsulfamoyl)phenyl)acetamide], the IC50 is no more than 1000 nM.

`O=C(Cc1ccc(S(=O)(=O)NC2CC2)cc1)Nc1ccc(C(O)(C(F)(F)F)C(F)(F)F)cc1` [Example 9, 2-(4-(N-cyclopropylsulfamoyl)phenyl)-N-(4-(1,1,1,3,3,3-hexafluoro-2-hydroxypropan-2-yl)phenyl)acetamide] had a half-inhibitory concentration (IC50) of no more than 100 nM.

The compound `CCNS(=O)(=O)c1ccc(CC(=O)Nc2ccc(C(O)(C(F)(F)F)C(F)(F)F)cc2)cc1` [Example 10, 2-(4-(N-ethylsulfamoyl)phenyl)-N-(4-(1,1,1,3,3,3-hexafluoro-2-hydroxypropan-2-yl)phenyl)acetamide] displayed a 50% inhibitory concentration (IC50) of no more than 1000 nM.

As for `O=C(Cc1cccc(S(=O)(=O)NC2CC2)c1)Nc1ccc(C(O)(C(F)(F)F)C(F)(F)F)cc1` [Example 12, 2-(3-(N-cyclopropylsulfamoyl)phenyl)-N-(4-(1,1,1,3,3,3-hexafluoro-2-hydroxypropan-2-yl)phenyl)acetamide], the IC50 was no more than 1000 nM.

`CCS(=O)(=O)c1ccc(CC(=O)Nc2ccc(C(O)(C(F)(F)F)C(F)(F)F)c(F)c2C)cc1` [Example 15, 2-(4-(ethylsulfonyl)phenyl)-N-(3-fluoro-4-(1,1,1,3,3,3-hexafluoro-2-hydroxypropan-2-yl)-2-methylphenyl)acetamide] showed an IC50 of no more than 1000 nM.

With `CNS(=O)(=O)c1cccc(CC(=O)Nc2ccc(C(O)(C(F)(F)F)C(F)(F)F)cc2)c1` [Example 19, N-(4-(1,1,1,3,3,3-hexafluoro-2-hydroxypropan-2-yl)phenyl)-2-(3-(N-methylsulfamoyl)phenyl)acetamide], the IC50 is no more than 1000 nM.

On to `CCS(=O)(=O)c1ccc(CC(=O)Nc2ccc(C(O)(C(F)(F)F)C(F)(F)F)cn2)cc1` [Example 21, 2-(4-(ethylsulfonyl)phenyl)-N-(5-(1,1,1,3,3,3-hexafluoro-2-hydroxypropan-2-yl)pyridin-2-yl)acetamide], for which the IC50 is no more than 1000 nM.

For `CCS(=O)(=O)c1ccc(CC(=O)Nc2cc(Cl)c(C(O)(C(F)(F)F)C(F)(F)F)cc2OC)cc1` [Example 22, N-(5-chloro-4-(1,1,1,3,3,3-hexafluoro-2-hydroxypropan-2-yl)-2-methoxyphenyl)-2-(4-(ethylsulfonyl)phenyl)acetamide], the IC50 was no more than 1000 nM.

The compound `CCS(=O)(=O)c1ccc(CC(=O)Nc2c(C)cc(C(O)(C(F)(F)F)C(F)(F)F)cc2C)cc1` [Example 23, 2-(4-(ethylsulfonyl)phenyl)-N-(4-(1,1,1,3,3,3-hexafluoro-2-hydroxypropan-2-yl)-2,6-dimethylphenyl)acetamide] gave a half-maximal inhibitory concentration (IC50) of no more than 1000 nM.

On to `Cc1c(NC(=O)Cc2ccc(S(=O)(=O)NC3CC3)cc2)ccc(C(O)(C(F)(F)F)C(F)(F)F)c1F` [Example 26, 2-(4-(N-cyclopropylsulfamoyl)phenyl)-N-(3-fluoro-4-(1,1,1,3,3,3-hexafluoro-2-hydroxypropan-2-yl)-2-methylphenyl)acetamide], for which the half-maximal inhibitory concentration (IC50) was no more than 1000 nM.

`CCS(=O)(=O)c1ccc(CC(=O)Nc2ccc(C(O)(C(F)(F)F)C(F)(F)F)cc2F)cc1` [Example 28, 2-(4-(ethylsulfonyl)phenyl)-N-(2-fluoro-4-(1,1,1,3,3,3-hexafluoro-2-hydroxypropan-2-yl)phenyl)acetamide] registered a 50% inhibitory concentration (IC50) of no more than 1000 nM.

For `CCS(=O)(=O)c1ccc(CC(=O)Nc2ccc(C(O)(C(F)(F)F)C(F)(F)F)c(C)c2)cc1` [Example 29, 2-(4-(ethylsulfonyl)phenyl)-N-(4-(1,1,1,3,3,3-hexafluoro-2-hydroxypropan-2-yl)-3-methylphenyl)acetamide], the IC50 is no more than 100 nM.

In turn, `CCS(=O)(=O)c1ccc(CC(=O)Nc2ccc(C(O)(C(F)(F)F)C(F)(F)F)cc2C)cc1` [Example 31, 2-(4-(ethylsulfonyl)phenyl)-N-(4-(1,1,1,3,3,3-hexafluoro-2-hydroxypropan-2-yl)-2-methylphenyl)acetamide] had an IC50 of no more than 1000 nM.

`Cc1cc(NC(=O)Cc2ccc(S(=O)(=O)NC3CC3)cc2)ccc1C(O)(C(F)(F)F)C(F)(F)F` [Example 32, 2-(4-(N-cyclopropylsulfamoyl)phenyl)-N-(4-(1,1,1,3,3,3-hexafluoro-2-hydroxypropan-2-yl)-3-methylphenyl)acetamide] came in with an IC50 of no more than 100 nM.

`Cc1cc(C(O)(C(F)(F)F)C(F)(F)F)ccc1NC(=O)Cc1ccc(S(=O)(=O)NC2CC2)cc1` [Example 34, 2-(4-(N-cyclopropylsulfamoyl)phenyl)-N-(4-(1,1,1,3,3,3-hexafluoro-2-hydroxypropan-2-yl)-2-methylphenyl)acetamide] registered an IC50 of no more than 1000 nM.

On to `Cc1cc(NC(=O)Cc2cccc(S(=O)(=O)NC3CC3)c2)ccc1C(O)(C(F)(F)F)C(F)(F)F` [Example 36, 2-(3-(N-cyclopropylsulfamoyl)phenyl)-N-(4-(1,1,1,3,3,3-hexafluoro-2-hydroxypropan-2-yl)-3-methylphenyl)acetamide], for which the IC50 is no more than 1000 nM.

In the case of `O=C(Cc1ccc(S(=O)(=O)CC2CC2)cc1)Nc1ccc(C(O)(C(F)(F)F)C(F)(F)F)cc1` [Example 37, 2-(4-((cyclopropylmethyl)sulfonyl)phenyl)-N-(4-(1,1,1,3,3,3-hexafluoro-2-hydroxypropan-2-yl)phenyl)acetamide], the IC50 is no more than 10 nM.

Compound `O=C(Cc1cccc(S(=O)(=O)NC2CC2)c1)Nc1ccc(C(O)(C(F)(F)F)C(F)(F)F)c(F)c1` [Example 38, 2-(3-(N-cyclopropylsulfamoyl)phenyl)-N-(3-fluoro-4-(1,1,1,3,3,3-hexafluoro-2-hydroxypropan-2-yl)phenyl)acetamide] registered a half-inhibitory concentration (IC50) of no more than 1000 nM.

With `O=C(Cc1cccc(S(=O)(=O)NC2CC2)c1)Nc1ccc(C(O)(C(F)(F)F)C(F)(F)F)cc1F` [Example 40, 2-(3-(N-cyclopropylsulfamoyl)phenyl)-N-(2-fluoro-4-(1,1,1,3,3,3-hexafluoro-2-hydroxypropan-2-yl)phenyl)acetamide], the IC50 is no more than 1000 nM.

As to `CCS(=O)(=O)c1ccc(CC(=O)Nc2ccc(C(O)(C(F)(F)F)C(F)(F)F)cc2)cc1F` [Example 42, 2-(4-(ethylsulfonyl)-3-fluorophenyl)-N-(4-(1,1,1,3,3,3-hexafluoro-2-hydroxypropan-2-yl)phenyl)acetamide], the IC50 is no more than 1000 nM.

Regarding `Cc1cc(C(O)(C(F)(F)F)C(F)(F)F)ccc1NC(=O)Cc1ccc(S(=O)(=O)CC2CC2)cc1` [Example 43, 2-(4-((cyclopropylmethyl)sulfonyl)phenyl)-N-(4-(1,1,1,3,3,3-hexafluoro-2-hydroxypropan-2-yl)-2-methylphenyl)acetamide], the concentration for half-maximal inhibition (IC50) is no more than 100 nM.

Regarding `Cc1cc(NC(=O)Cc2ccc(S(=O)(=O)CC3CC3)cc2)ccc1C(O)(C(F)(F)F)C(F)(F)F` [Example 44, 2-(4-((cyclopropylmethyl)sulfonyl)phenyl)-N-(4-(1,1,1,3,3,3-hexafluoro-2-hydroxypropan-2-yl)-3-methylphenyl)acetamide], the half-maximal inhibitory concentration (IC50) is no more than 10 nM.

In the case of `O=C(Cc1ccc(S(=O)(=O)CC2CC2)cc1)Nc1ccc(C(O)(C(F)(F)F)C(F)(F)F)c(F)c1` [Example 45, 2-(4-((cyclopropylmethyl)sulfonyl)phenyl)-N-(3-fluoro-4-(1,1,1,3,3,3-hexafluoro-2-hydroxypropan-2-yl)phenyl)acetamide], the IC50 is no more than 10 nM.

Consider `O=C(Cc1ccc(S(=O)(=O)CC2CC2)cc1)Nc1ccc(C(O)(C(F)(F)F)C(F)(F)F)cc1F` [Example 46, 2-(4-((cyclopropylmethyl)sulfonyl)phenyl)-N-(2-fluoro-4-(1,1,1,3,3,3-hexafluoro-2-hydroxypropan-2-yl)phenyl)acetamide], for which the IC50 was no more than 10 nM.

`CCOC(c1ccc(NC(=O)Cc2ccc(S(=O)(=O)CC)cc2)cc1)(C(F)(F)F)C(F)(F)F` [Example 48, N-(4-(2-ethoxy-1,1,1,3,3,3-hexafluoropropan-2-yl)phenyl)-2-(4-(ethylsulfonyl)phenyl)acetamide] gave a half-inhibitory concentration (IC50) of no more than 1000 nM.

Regarding `CCCOC(c1ccc(NC(=O)Cc2ccc(S(=O)(=O)CC)cc2)cc1)(C(F)(F)F)C(F)(F)F` [Example 49, 2-(4-(ethylsulfonyl)phenyl)-N-(4-(1,1,1,3,3,3-hexafluoro-2-propoxypropan-2-yl)phenyl)acetamide], the IC50 is no more than 100 nM.

For `CCS(=O)(=O)c1ccc(CC(=O)Nc2ccc(C(OCc3ccccc3)(C(F)(F)F)C(F)(F)F)cc2)cc1` [Example 50, N-(4-(2-(benzyloxy)-1,1,1,3,3,3-hexafluoropropan-2-yl)phenyl)-2-(4-(ethylsulfonyl)phenyl)acetamide], the IC50 was no more than 1000 nM.

As for `CC(C)OC(c1ccc(NC(=O)Cc2ccc(S(=O)(=O)CC3CC3)cc2)cc1)(C(F)(F)F)C(F)(F)F` [Example 51, 2-(4-((cyclopropylmethyl)sulfonyl)phenyl)-N-(4-(1,1,1,3,3,3-hexafluoro-2-isopropoxypropan-2-yl)phenyl)acetamide], the IC50 is no more than 100 nM.

As to `CCCCOC(c1ccc(NC(=O)Cc2ccc(S(=O)(=O)CC3CC3)cc2)cc1)(C(F)(F)F)C(F)(F)F` [Example 52, N-(4-(2-butoxy-1,1,1,3,3,3-hexafluoropropan-2-yl)phenyl)-2-(4-((cyclopropylmethyl)sulfonyl)phenyl)acetamide], the 50% inhibitory concentration (IC50) is no more than 100 nM.
